Tests used:
[1] = target: Mn-C1634 (thermostable chimeric P450 heme domain C1634); test: optical absorbance titration, two-component binding fit; parameters: species or system Priestia megaterium; Bacillus subtilis; details: Mn(III)-PPIX in place of heme; PBS; 5 μM protein
[2] = target: T1, Mn-BM3h (wild-type cytochrome P450 BM3 heme domain) (Priestia megaterium, UniProt P14779); test: optical absorbance titration; format: binding
T1 sequence (P14779 2-464 limits assumed): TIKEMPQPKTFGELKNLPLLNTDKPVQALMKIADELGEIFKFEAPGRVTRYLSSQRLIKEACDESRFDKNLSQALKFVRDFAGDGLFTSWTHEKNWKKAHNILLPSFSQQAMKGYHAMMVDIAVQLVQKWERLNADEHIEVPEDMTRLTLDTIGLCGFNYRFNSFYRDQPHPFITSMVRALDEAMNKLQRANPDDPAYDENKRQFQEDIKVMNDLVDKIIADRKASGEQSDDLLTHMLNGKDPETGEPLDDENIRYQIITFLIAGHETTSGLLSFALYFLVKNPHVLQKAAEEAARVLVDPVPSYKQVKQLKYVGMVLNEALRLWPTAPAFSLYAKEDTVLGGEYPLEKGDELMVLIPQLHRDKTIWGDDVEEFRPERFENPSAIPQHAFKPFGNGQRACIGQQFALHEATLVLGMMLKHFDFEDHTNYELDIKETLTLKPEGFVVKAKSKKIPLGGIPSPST

CCCCC/C=C\C/C=C\C/C=C\C/C=C\CCCC(=O)O [AA, arachidonic acid]
Kd [1]: 2500 ± 700 nM
Kd [2]: 700 ± 500 nM
